Data published in publication PMC10275055, “Preventing recurrence in Sonic Hedgehog Subgroup Medulloblastoma using the OLIG2 inhibitor CT-179” (Research Square, 2023).

Experiments:
[1] = test system: OLIG2-driven transcription (human LHX8 promoter); assay: LHX8 promoter luciferase reporter assay in Daoy cells; assay type: cell-based; details: OLIG2 overexpression, 250 nM, 24 hours
Description: Promoter region of human LHX8 was amplified by PCR from human genomic DNA extracted from Med-813luci cells with primers shown in STAR METHODS. The promoter region was inserted into the pGL3-Basic luciferase-reporter vector (Promega). Flag-OLIG2 were synthesised as a gBlock flanked by the Nhel and BamHI restriction enzyme sites (Integrated DNA Technologies, Singapore). The gBlock was restriction digested and ligated into the expression vector, pLEX_307 (a gift from Joseph Rosenbluh, Monash University, Australia) to form pLX307/FLAG-OLIG2. Firefly luciferase-reporter construct (300 ng, pGL3-Basic or pGL3-LHX8), pRL Renilla luciferase SV40 Control Reporter Vector (Promega, 50 ng), and pLX307/Flag-OLIG2 (300 ng) or pLX307/empty vector (300 ng) were reverse co-transfected with Daoy cells (1 × 10^5/well) in 24-well plates using Lipofectamine™ 3000 (Invitrogen). CT-179 (250 nM) was added and incubated for 24 hours. The luciferase activity was examined using Dual-Glo® Luciferase Assay System (Promega) according to the manufacturer’s instructions, and the signal was normalised to vector controls.

[2] = test system: Daoy cells; assay: Apoptosis and cell cycle analysis in Daoy cells; assay type: cell-based, human; details: 1 μM
Method: Cell proliferation was determined by a CellTiter 96® Non-Radioactive Cell Proliferation Assay (Promega) kit. Absorbance at 490 nm was measured on a Biotek PowerWave (Biotek, USA) plate scanner to obtain raw data. Average absorbance from triplicate wells were plotted against concentration using GraphPad Prism software v.7.0 (GraphPad software). At the indicated time points, cells were stained using FITC-conjugated Annexin V and Annexin V binding buffer (BD Pharmingen™) according to the manufacturer’s instructions. Annexin V or propidium iodide (PI)-positive cells were analyzed using a Fortessa 5 Flow Cytometer (Becton Dickinson) and data was analyzed using FlowJo® software (Tree Star).
Cell cycle analysis was performed as descried previously. Cells were fixed with 70% ice-cold ethanol and subsequently stained with PI and analyzed using a Fortessa 5 Flow Cytometer (Becton Dickinson) and data was analyzed using FlowJo® software (Tree Star).

Cc1cc(NCCCN(C)C)nc(NC(=O)Nc2ccc(Cl)c(Cl)c2)n1 [CT-179]
luciferase expression (LHX8 promoter reporter) [1]: significantly decreased
apoptosis (cleaved CASPASE-3, Annexin V) [2]: increased apoptosis
cell cycle effect ([2]; 24 hours, single therapy): G2/M phase arrest
